Results published in US20250295732A1, “COMPOSITIONS AND METHODS FOR ACTIVATING INNATE IMMUNITY” (Zoetis Services LLC, priority 2021, published 2025).

Key:
[1] = tested on: bovine monocyte-derived macrophages; assay: Reactive nitrogen species (nitrite, Griess Reagent System); assay type: cell-based; conditions: E. coli bioparticles 10 μg/mL 24 hours after CATH2 24 hr and 3-day rest; vs vehicle
Text: (§1) Peripheral blood mononuclear cells (PBMC) were isolated from bovine blood using ficoll gradients. Bovine monocytes were isolated from PBMC using magnetic assisted cell sorting to positively select for CD14+ cells using anti-human CD14 microbeads (Miltenyi Biotec). Purified bovine blood CD14+ monocytes were differentiated into macrophages using an M2-skewing differentiation factor (recombinant bovine M-CSF) over 7 days then exposed to CATH2 or a vehicle control in the presence of bovine casein to mimic aspects of the mammary gland for 24 hr. […] Following the rest period, a subset of vehicle- and CATH2-trained monocyte-derived macrophages were assessed for epigenetic and transcriptomic changes. The remaining cells were challenged with LPS or E. coli bioparticle labeled with pH-sensitive pHrodo green dye and key parameters for macrophage activation/immune response were assessed including glycolytic activity, surface marker expression, gene expression, cytokine production, phagocytosis, reactive nitrogen species production, and miRNA profiling. Nitrite, a primary breakdown product of nitric oxide, in cell culture supernatant were quantified using Griess Reagent System (Promega) according to manufacturer's instructions.

[2] = tested on: bovine monocyte-derived macrophages; assay: Flow cytometric surface marker expression after LPS; assay type: cell-based; conditions: 24 hr following LPS after CATH2 removal and 3-day rest; vs vehicle
Text: as §1, with “profiling.” for “profiling. Nitrite, a primary breakdown product of nitric oxide, in cell culture supernatant were quantified using Griess Reagent System (Promega) according to manufacturer's instructions.”
Expression of surface markers on bovine monocyte-derived macrophages and cells isolated from bovine milk were assessed using flow cytometry. […] Following incubation with live/dead stain and antibodies, labeled cells were washed, and then analyzed on a ZE5 CellAnalyzer (BioRad) for monocyte-derived macrophages and a FACS Canto II (BD) for milk cells. […]

[3] = tested on: bovine monocyte-derived macrophages; assay: Phagocytosis of pHrodo green-labeled E. coli bioparticle (IncuCyte); assay type: cell-based; conditions: <4 hr from challenge with E. coli bioparticles (10 μg/mL); after CATH2 24 hr and 3-day rest; vs vehicle
Text: as §1, with “In brief, E. coli bioparticle labeled with pHrodo-green pH sensitive dye (Invitrogen) were added to monocyte-derived macrophages and phase and green fluorescence was captured over time using the S3 IncuCyte® Live-Cell Analysis System (Essen Bioscience) over” for “Nitrite,”, “period” for “primary breakdown product”, “24-hr. […]” for “nitric oxide, in cell culture supernatant were quantified using Griess Reagent System (Promega) according to manufacturer's instructions.”

[4] = tested on: milk macrophages (CD14+CD172a+ milk cells); assay: In vivo intramammary treatment and E. coli mastitis challenge model; design: species or system lactating dairy cows
Description: Healthy lactating dairy cows were treated according to table 1 on day −2 of study, at the AM milking, in the front quarters designated by the allotment, one quarter was treated with CATH2 and the neighboring quarter within the same cow was given vehicle control by intramammary infusion. Following administration of CATH2 and vehicle doses, quarters which received CATH2 or vehicle received an intramammary infusion of live Escherichia coli. The E. coli strain used causes clinical mastitis. Milk samples from CATH2-treated and vehicle control quarters were collected following E. coli challenge for cell isolation to assess macrophage surface marker expression.
Expression of surface markers on bovine monocyte-derived macrophages and cells isolated from bovine milk were assessed using flow cytometry. In brief, for monocyte-derived macrophages, cells were lifted with Accutase, washed, and then incubated with fluorescently tagged antibodies against bovine surface markers of interest (CD163, CD14, CD80, MHC II) and a live/dead stain. In brief, for cells in bovine milk, milk was diluted in MACS Running Buffer, spun, fat layer and supernatant were discarded, and milk cell pellets were preserved in Streck. Preserved milk cells were washed again and then incubated with fluorescently tagged antibodies against bovine surface markers of interest (CD163, CD14, CD80, MHC II, CD172a) and a live/dead stain. Following incubation with live/dead stain and antibodies, labeled cells were washed, and then analyzed on a ZE5 CellAnalyzer (BioRad) for monocyte-derived macrophages and a FACS Canto II (BD) for milk cells. Flow cytometry data were analyzed using FlowJo analysis software (Becton Dickson) to assess relative levels of expression via mean fluorescent intensity for each marker of interest within the live CD14+ cell population (for monocyte-derived macrophages) or within the live CD14+CD172a+ cell population (for milk cells).

[5] = intramammary CATH2 prior to E. coli challenge

RFGRFLRKIRRFRPKVTITIQGSARFG [CATH2, cathelicidin 2 peptide]
RNS (nitrite) response to E. coli bioparticle challenge [1]: enhanced production of nitrogen oxide species/reactive nitrogen species (RNS) responses | Surface marker expression (CD14, CD80, MHC II, CD163) [2]: enhanced expression of multiple surface markers | Phagocytosis of E. coli bioparticles [3]: enhanced phagocytosis of E. coli bioparticles | Bacterial counts in milk [4, 5]: reduced bacterial counts in milk | Milk somatic cell counts [4, 5]: lower milk somatic cell counts | Milk macrophage surface marker expression (CD14, CD80, MHC II, CD163) ([4]; intramammary CATH2 prior to challenge, 12 hr following live E. coli intramammary challenge, vs vehicle quarter): enhanced expression of the same surface markers
